Square brackets hold non-standard residues; d marks the D form. Peptide text beside a SMILES is read from it.
System: THP1-PMA-differentiated macrophages
Assay: LPS-induced cytokine and chemokine release in PMA differentiated THP1 macrophages (ELISA)
Format: cell-based, human
Source text: The technique used is a Sandwich ELISA, which allows measuring the amount of antigen between two layers of antibodies (i.e. capture and detection antibody). The antigen to be measured must contain at least two antigenic sites capable of binding to antibody, since at least two antibodies act in the sandwich. Either monoclonal or polyclonal antibodies can be used as the capture and detection antibodies in Sandwich ELISA systems. Monoclonal antibodies recognize a single epitope that allows fine detection and quantification of small differences in antigen. A polyclonal is often used as the capture antibody to pull down as much of the antigen as possible.
In the following the procedure will be set forth describing how cytokine production from human PMA differentiated THP1 cells challenged by LPS for 6 h was induced in order to test the ability of JNK inhibitors of the present invention, in particular of a JNK inhibitor with SEQ ID NO: 172, to reduce stimulation-induced cytokine release. THP1 cells were stimulated ex-vivo by different ligands for the readout of cytokine release. At non toxic doses, JNK inhibitor efficacy is indicated by the decrease of the cytokine levels as compared to non-treated samples and is monitored by ELISA. The toxicity of the compound are evaluated by the reduction of a tretazolium salt (MTS) to formazan, giving a purple colour.
The cells were counted. The desired number of cells was taken and resuspended in the amount of media necessary to get a dilution of 1'000'000 cells/ml. 100 nM of PMA was added to induce the differentiation of the THP1 from suspension monocytes to adherent macrophages. The cells were plated into the wells in […] medium at plating densities of 100'000 cells/well. After inoculation, the plates were incubated at 37° C., 5% CO2 and 100% relative humidity 3 days to let them differentiate, prior to the addition of experimental drugs.
The plates were treated with 50 µl of medium or a solution of 4× the final desired drug concentration (0, 100 nM, 1, 3, 10 or 30 µM final for JNK compound or at 0, 10, 100 nM, 1, 3 or […] final for the SP600125 positive control). Following drug addition, the plates were incubated for an additional 1 h at 37° C., 5% CO2 and 100% relative humidity. […]
After 6 hours, 100 µl of the supernatant were transferred to new 96 well plates. Those plates were sealed and stored at −20° till the analysis by ELISA (e.g. see example 4) of the secretion of the cytokines.
Analyses of the data are performed as indicated in the ELISA (see example 4). Briefly, for ELISA: Average the triplicate readings for each standard control and each sample. Subtract the average zero standard optical density (O.D). Create a standard curve plotting the log of the cytokine concentration versus the log of the O.D and the best fit line can be determined by regression analysis. If samples have been diluted, the concentration read from the standard curve must be multiplied by the dilution factor. A standard curve should be generated for each set of samples assayed. The outliers data were avoid using Grugg's test. Then the data which weren't in the interval of two times the SD, were discard. […] The independent experiments are pooled (N>3).

## CC(C)C[C@H](NC(=O)[C@H](CC(N)=O)NC(=O)[C@H](CC(C)C)NC(=O)[C@@H](NC(=O)[C@@H](C)NC(=O)[C@@H]1CCCN1C(=O)[C@H](CCCNC(=N)N)NC(=O)[C@@H](CCCCN)NC(=O)[C@@H]1CCCN1C(=O)[C@H](CCCNC(=N)N)NC(=O)[C@@H](CCCNC(=N)N)NC(=O)[C@H](CCCNC(=N)N)NC(=O)[C@H](CCCNC(=N)N)NC(=O)[C@H](CCC(N)=O)NC(=O)[C@@H](CCCNC(=N)N)NC(=O)[C@H](CCCNC(=N)N)NC(=O)[C@H](CCCCN)NC(=O)[C@H](CCCCN)NC(=O)[C@H](N)CCCNC(=N)N)[C@@H](C)O)C(=O)N[C@H](Cc1ccccc1)C(N)=O [SEQ ID NO: 172, rKKRrQRRrRPkRPaTLNLf] (H-[dR]KKR[dR]QRR[dR]RP[dK]RP[dA]TLNL[dF]-NH2)
LPS 6 h (10 ng/ml)
  LPS-induced IL6 release, potency compared with SEQ ID NO: 197, SEQ ID NO: 45 and SP 600125: higher potency
  LPS-induced TNFα release, potency compared with SEQ ID NO: 197, SEQ ID NO: 45 and SP 600125: higher potency
PMA differentiated macrophages
  LPS-induced TNFα release, potency compared with SEQ ID NO: 197 and SEQ ID NO: 196: higher potency
PMA differentiated macrophages, LPS 6 h
  LPS-induced IL-6 release, potency compared with SEQ ID NO: 197 and SEQ ID NO: 196: higher potency
THP1pma, 6 h, 3 or 10 ng/ml LPS
  LPS-induced cytokine and chemokine release (TNF, IL 6, MCP1): blocks LPS-induced cytokine and chemokine release
